Source: patent publication US20230320970A1, “Skin Care Compositions” (Colgate-Palmolive Company, priority 2022, published 2023)

What was measured:
[1] = tested on: human derived keratinocytes; assay: ROS production in H2O2-treated keratinocytes (alpha-tocopherol, EGT, sodium PCA), ROS Detection Assay Kit; format: cell-based; conditions: alpha-tocopherol 0.001%, EGT 0.01%, Na PCA 0.01%; for % Decrease in ROS generated in keratinocyte: relative to 0.3 wt. % H2O2 treatment; for Fold Change, decrease in ROS generated in keratinocyte by antioxidant treatment: vs. 0.1 wt. % DMSO + 0.3 wt. % H2O2
Text: Sample preparation: Human derived keratinocytes, plated on 24-well plates.
Cellular ROS/Superoxide Detection Assay Kit (Abcam—ab139476)

[2] = tested on: human derived keratinocytes; assay: ROS production in H2O2-treated keratinocytes (alpha-tocopherol, EGT, niacinamide), ROS Detection Assay Kit; format: cell-based; conditions: alpha-tocopherol (0.001%) [sic], EGT 0.01%, niacinamide 0.01%; for % Decrease in ROS generated in keratinocyte: relative to 0.3 wt. % H2O2 treatment; for Fold Change, decrease in ROS generated in keratinocyte by antioxidant treatment: vs. 0.1% DMSO + 0.3% H2O2
Experimental: Hydrogen peroxide treated cells were then treated with: alpha-tocopherol, ergothioneine and niacinamide, respectively and in combination. […] [table] […] [table]

[3] = cited from earlier work

Row | SMILES | % Decrease in ROS generated in keratinocyte [1] | % Decrease in ROS generated in keratinocyte ([1]; listed as α-tocopherol) | Fold Change, decrease in ROS generated in keratinocyte by antioxidant treatment [1] | % Decrease in ROS generated in keratinocyte [2] | Fold Change, decrease in ROS generated in keratinocyte by antioxidant treatment [2] | % Decrease in ROS generated in keratinocyte ([1]; listed as Sodium PCA) | Log P [3]
1 | Cc1c(C)c2c(c(C)c1O)CC[C@@](C)(CCC[C@H](C)CCC[C@H](C)CCCC(C)C)O2 [Alpha-tocopherol, alpha-tocopherol] | 70.72% | 70.72% | 4.21-fold decrease | 20.79% | 0.4-fold decrease | – | –
2 | C[N+](C)(C)[C@@H](Cc1c[nH]c(=S)[nH]1)C(=O)[O-] [EGT, Ergothioneine] | 74.5% | – | 4.43-fold decrease | 15.91% | 0.31-fold decrease | – | –
3 | O=C1CCC(C(=O)[O-])N1.[Na+] (stereo not drawn) [Na PCA, Sodium PCA] | 37.88% | – | 2.25-fold decrease | 25.75% | – | 37.9% | –
4 | NC(=O)c1cccnc1 [Niacinamide] | – | – | – | – | 0.24-fold decrease | – | –
5 | O=C1O[C@H]([C@@H](O)CO)C(O)=C1O[C@H]1O[C@H](CO)[C@@H](O)[C@H](O)[C@H]1O [ascorbyl glucoside] | – | – | – | – | – | – | −2.5
